# In PMC7517944, “Design and Synthesis of Novel Nordihydroguaiaretic Acid (NDGA) Analogues as Potential FGFR1 Kinase Inhibitors With Anti-Gastric Activity and Chemosensitizing Effect” (Frontiers in Pharmacology, 2020):
# Columns and labels:
# [1] = target: T1, FGFR1 kinase (Homo sapiens, UniProt P11362); experiment: cell-free Caliper mobility shift kinase assay, inhibition at […]; format: biochemical
# [2] = target: T1, FGFR1 kinase; experiment: cell-free Caliper mobility shift kinase assay, […] inhibition at […]; also lowers p-FGFR1 in cells; format: biochemical
# T1 sequence (P11362 22-822): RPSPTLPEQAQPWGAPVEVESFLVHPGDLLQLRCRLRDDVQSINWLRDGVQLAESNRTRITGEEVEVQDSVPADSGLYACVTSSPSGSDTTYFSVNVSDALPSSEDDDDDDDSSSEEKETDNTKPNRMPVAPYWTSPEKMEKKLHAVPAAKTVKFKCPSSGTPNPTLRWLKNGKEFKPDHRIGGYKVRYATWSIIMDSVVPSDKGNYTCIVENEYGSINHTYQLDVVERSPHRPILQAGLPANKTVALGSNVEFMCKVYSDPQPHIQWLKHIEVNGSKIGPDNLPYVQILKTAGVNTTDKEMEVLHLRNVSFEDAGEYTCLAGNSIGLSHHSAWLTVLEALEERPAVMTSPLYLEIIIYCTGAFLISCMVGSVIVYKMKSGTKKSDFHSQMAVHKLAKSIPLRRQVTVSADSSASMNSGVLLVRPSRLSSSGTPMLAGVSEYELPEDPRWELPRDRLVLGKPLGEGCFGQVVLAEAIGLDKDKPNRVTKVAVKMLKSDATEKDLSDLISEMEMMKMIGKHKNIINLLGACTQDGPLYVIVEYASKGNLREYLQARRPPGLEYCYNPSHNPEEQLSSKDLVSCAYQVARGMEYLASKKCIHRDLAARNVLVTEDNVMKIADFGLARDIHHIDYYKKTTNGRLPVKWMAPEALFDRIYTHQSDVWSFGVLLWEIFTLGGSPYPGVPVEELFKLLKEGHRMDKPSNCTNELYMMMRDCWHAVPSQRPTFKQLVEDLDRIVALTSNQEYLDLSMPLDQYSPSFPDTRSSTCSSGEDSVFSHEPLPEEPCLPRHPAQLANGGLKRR
Compound,inhibition at 20 µM [1],inhibition at 20 µM [2]
"COc1cc(/C=C2\COC/C(=C\c3ccc(O)c(O)c3)C2=O)ccc1O [Y2, (3E,5E)-3-(3,4-dihydroxybenzylidene)-5-(4-hydroxy-3-methoxybenzylidene)dihydro-2H-pyran-4(3H)-one]",55.7%,
"O=C1/C(=C/c2cccc(O)c2)COC/C1=C\c1ccc(O)c(O)c1 [Y7, (3E,5E)-3-(3,4-dihydroxybenzylidene)-5-(3-hydroxybenzylidene)dihydro-2H-pyran-4(3H)-one]",73.7%,
"O=C1/C(=C/c2ccc(O)cc2)COC/C1=C\c1ccc(O)c(O)c1 [Y5, (3E,5E)-3-(3,4-dihydroxybenzylidene)-5-(4-hydroxybenzylidene)dihydro-2H-pyran-4(3H)-one]",78.5%,
"COc1ccc(/C=C2\COC/C(=C\c3ccc(O)c(O)c3)C2=O)cc1O [Y9, (3E,5E)-3-(3,4-dihydroxybenzylidene)-5-(3-hydroxy-4-methoxybenzylidene)dihydro-2H-pyran-4(3H)-one]",53.5%,
O=C1/C(=C/c2ccc(O)c(O)c2)COC/C1=C\c1ccc(O)c(O)c1 [Af23],92.8%,

# Next, values leading:
inhibition at 20 µM [1],inhibition at 20 µM [2],Compound
54.2%,,"COc1ccccc1/C=C1\COC/C(=C\c2ccc(O)c(O)c2)C1=O [Y11, (3E,5E)-3-(3,4-dihydroxybenzylidene)-5-(2-methoxybenzylidene)dihydro-2H-pyran-4(3H)-one]"
71.4%,,"O=C1/C(=C/c2ccc(N3CCOCC3)cc2)COC/C1=C\c1ccc(O)c(O)c1 [Y13, (3E,5E)-3-(3,4-dihydroxybenzylidene)-5-(4-morpholinobenzylidene)dihydro-2H-pyran-4(3H)-one]"
,92%,"COc1cccc(/C=C2\COC/C(=C\c3ccc(O)c(O)c3)C2=O)c1OC [Y14, (3E,5E)-3-(3,4-dihydroxybenzylidene)-5-(2,3-dimethoxybenzylidene)dihydro-2H-pyran-4(3H)-one]"
67.6%,,"COc1ccc(OC)c(/C=C2\COC/C(=C\c3ccc(O)c(O)c3)C2=O)c1 [Y15, (3E,5E)-3-(3,4-dihydroxybenzylidene)-5-(2,5-dimethoxybenzylidene)dihydro-2H-pyran-4(3H)-one]"
